Experimental data as given in the NIST ThermoML archive (doi:10.1021/je100638g).

Tests used:
[1] = Molar enthalpy of transition or fusion; conditions: Crystal; DSC
[2] = for mass density / viscosity: 100 kPa, Liquid; for Normal melting temperature: Crystal, DTA
[3] = xn = mol fraction of the nth substance listed; conditions: 100 kPa, Liquid

CCCn1cc[n+](C)c1.F[P-](F)(F)(F)(F)F [1-methyl-3-propylimidazolium hexafluorophosphate]
Conditions	Molar enthalpy of transition or fusion [kcal/mol]	Normal melting temperature [°C]
[1]	3.99	–
[2]	–	38.5

[2]
Conditions	mass density [kg/m3]	viscosity [mPa·s]
318.15 K	1397.5	85.01
323.15 K	1393.2	68.18
328.15 K	1389	55.46
333.15 K	1384.7	45.7
338.15 K	1380.5	38.09
343.15 K	1376.3	32.1
348.15 K	1372.1	27.32
353.15 K	1367.9	23.47
358.15 K	1363.8	20.34
363.15 K	1359.6	17.77

CCCn1cc[n+](C)c1.F[P-](F)(F)(F)(F)F [1-methyl-3-propylimidazolium hexafluorophosphate] + O
[3], x2 = 0.306
Conditions	mass density [kg/m3]	viscosity [mPa·s]
303.15 K	1389.2	39.41
308.15 K	1384.7	32.25
313.15 K	1380.2	26.84
318.15 K	1375.7	22.61
323.15 K	1371.3	19.29
328.15 K	1366.9	16.58
333.15 K	1362.5	14.39
338.15 K	1358.1	12.61
343.15 K	1353.8	11.13
348.15 K	1349.4	9.905
353.15 K	1345.1	8.874
358.15 K	1340.8	7.983
363.15 K	1336.5	7.228

CCCc1ccc[n+](C)c1.F[P-](F)(F)(F)(F)F [1-methyl-3-propylpyridinium hexafluorophosphate]
Conditions	Molar enthalpy of transition or fusion [kcal/mol]	Normal melting temperature [°C]
[1]	3.59	–
[2]	–	38.1

[2]
Conditions	mass density [kg/m3]	viscosity [mPa·s]
318.15 K	1365.4	132.87
323.15 K	1361.3	102.17
328.15 K	1357.3	79.97
333.15 K	1353.2	63.67
338.15 K	1349.2	51.52
343.15 K	1345.2	42.29
348.15 K	1341.2	35.16
353.15 K	1337.2	29.58
358.15 K	1333.2	25.15
363.15 K	1329.2	21.59

CCCc1ccc[n+](C)c1.F[P-](F)(F)(F)(F)F [1-methyl-3-propylpyridinium hexafluorophosphate] + O
[3], x2 = 0.249
Conditions	mass density [kg/m3]	viscosity [mPa·s]
303.15 K	1362.5	73.39
308.15 K	1358.3	57.55
313.15 K	1354	45.98
318.15 K	1349.8	37.36
323.15 K	1345.6	30.81
328.15 K	1341.4	25.75
333.15 K	1337.2	21.76
338.15 K	1333.1	18.6
343.15 K	1328.9	16.04
348.15 K	1324.8	13.98
353.15 K	1320.7	12.28
358.15 K	1316.6	10.86
363.15 K	1312.5	9.677
